pIC50: −log10 of the molar value. Where two headings read alike, the source gives them in different places.
Key:
[1] = test system: Human Lymphoblastic Leukemia CCRF-CEM; assay: CCRF-CEM xenograft in nude mice, i.v. 6 h infusion; assay type: in vivo; conditions: for Average Body Weight, Day 21: initial weight
[2] = test system: CCRF-CEM human T-cell acute lymphoblastic leukemia cell line; assay: XTT cytotoxicity (cell growth inhibition), CCRF-CEM
Protocol: The DC-3F hamster lung fibroblast cell line and its actinomycin D-selected sublines (DC-3F/ADII and DC-3F/ADX) were obtained from the Memorial Sloan-Kettering Cancer Center (MSKCC).
(§1) The drug-resistant cell lines were continuously cultured in the presence of the selecting agent, AD, DX, VBL or VM to maintain the drug resistant phenotypes. […] All cells were cultured in RPMI 1640-10% FBS at 37° C. 5% CO2 (see below).
(§2) The cells were cultured at an initial density of 5×10^4 cells/mL. They were maintained in a 5% CO2-humidified atmosphere at 37° C. in RPMI-1640 medium (GIBCO-BRL, Gaithersburg, Md.) containing penicillin (100 U/mL), streptomycin ([…]) (GIBCO-BRL) and 10% heat inactivate fetal bovine serum. Culture for cell suspension (such as for CCRF-CEM, P388 and sublines), were performed by the XTT-microculture tetrazonium method (Scudiero, D. A. et al., Cancer Res. 1988, 48, 4827-4833) in duplicate in 96-well microtiter plates.
(§3) 2′,3′-Bis(methoxy-4-nitro-5-sufophenyl)-5-[(phenylamino)carbonyl]2H-tetrazolium hyudroxide (XTT) was prepared at 1 mg/mL in prewarmed (37° C.) medium without serum. Phenazine methosulfate (PMS) and fresh XTT were mixed together to obtain 0.025 mM PMS-XTT solution (25 μL of the stock 5 mM PMS was added per 5 mL of 1 mg/mL XTT). Following a 72 h incubation, 50 μL of the assay aliquots were added to each well of the cell culture. After incubation at 37° C. for 4 h, absorbance at 450 nm and 630 nm was measured with a microplate reader (EL340, Bio-Tek Instruments, Inc., Winooski, Vt.).

CCRF-CEM/VBL100 = assay: cells; assay type: cell-based, human
Protocol: as §1, §2, §3

CCRF-CEM/VM1 = assay: cells; assay type: cell-based, human
Protocol: as §1, §2, §3

[3] = Dose DesoxyepoB 40, Taxol 20, i.v. infusion 6 hr on day 21,23,25,27
[4] = Table 26, Dose Q2D x 4: DesoxyepoB 40, Taxol 20
[5] = Table 6, single determinations, read-out: IC50
[6] = Table 7, CEM/VBL, read-out: IC50
[7] = Table 6, read-out: IC50 (mean ± of determinations, in parentheses)
[8] = Table 6, single determinations, listed as 8, read-out: IC50
[9] = Table 6, single determinations, listed as EPOTHILONE B (Synthetic), read-out: IC50

Compound: C/C1=C/C[C@@H](/C(C)=C/c2csc(C)n2)OC(=O)C[C@H](O)C(C)(C)C(=O)[C@H](C)[C@@H](O)[C@@H](C)CCC1 [DesoxyepoB]
- Average Body Weight Changes, Day 23 [1, 3]: -1.4 g
- Average Body Weight Changes, Day 25 [1, 3]: -3.6 g
- Average Body Weight Changes, Day 27 [1, 3]: -3.9 g
- Average Body Weight Changes, Day 29 [1, 3]: -5.2 g
- Average Body Weight Changes, Day 31 [1, 3]: -4.2 g
- Average Body Weight Changes, Day 33 [1, 3]: -3.1 g
- Average Body Weight Changes, Day 35 [1, 3]: -2.3 g
- Average Body Weight Changes, Day 37 [1, 3]: -1.2 g
- Average Body Weight Changes, Day 39 [1, 3]: -0.2 g
- Average Body Weight Changes, Day 41 [1, 3]: +0.9 g
- Average Tumor Size (T/C), Day 21 [1, 3]: 1.10 T/C
- Average Tumor Size (T/C), Day 23 [1, 3]: 0.73 T/C
- Average Tumor Size (T/C), Day 25 [1, 3]: 0.31 T/C
- Average Tumor Size (T/C), Day 27 [1, 3]: 0.09 T/C
- Average Tumor Size (T/C), Day 29 [1, 3]: 0 T/C
- Average Tumor Size (T/C), Day 31 [1, 3]: 0 T/C
- Average Tumor Size (T/C), Day 33 [1, 3]: 0 T/C
- Average Tumor Size (T/C), Day 35 [1, 3]: 0 T/C
- Proportion of Tumor Disappearance (n/total), Day 21 [1, 3]: 0/3
- Proportion of Tumor Disappearance (n/total), Day 23 [1, 3]: 0/3
- Proportion of Tumor Disappearance (n/total), Day 25 [1, 3]: 0/3
- Proportion of Tumor Disappearance (n/total), Day 27 [1, 3]: 0/3
- Proportion of Tumor Disappearance (n/total), Day 29 [1, 3]: 3/3
- Proportion of Tumor Disappearance (n/total), Day 31 [1, 3]: 3/3
- Proportion of Tumor Disappearance (n/total), Day 33 [1, 3]: 3/3
- Proportion of Tumor Disappearance (n/total), Day 35 [1, 3]: 3/3
- Proportion of Tumor Disappearance (n/total), Day 37 [1, 3]: 1/3
- Proportion of Tumor Disappearance (n/total), Day 39 [1, 3]: 1/3
- Proportion of Tumor Disappearance (n/total), Day 41 [1, 3]: 0/3
- Average Body Weight Change, Day 23 [1, 4]: -1.4 g
- Average Body Weight Change, Day 25 [1, 4]: -3.6 g
- Average Body Weight Change, Day 27 [1, 4]: -3.9 g
- Average Body Weight Change, Day 29 [1, 4]: -5.2 g
- Average Body Weight Change, Day 31 [1, 4]: -4.2 g
- Average Tumor Size (T/C), Day 23 [1, 4]: 0.68 T/C
- Average Tumor Size (T/C), Day 25 [1, 4]: 0.30 T/C
- Average Tumor Size (T/C), Day 27 [1, 4]: 0.09 T/C
- Average Tumor Size (T/C), Day 29 [1, 4]: 0 T/C
- Average Tumor Size (T/C), Day 31 [1, 4]: 0 T/C
- Tumor Disappearance [1, 4]: 3/3
- Average Body Weight, Day 21 [1, 4]: 26.6 g
- Average Body Weight, Day 21 [1, 3]: 26.6 g

Compound: C=CC[C@H](OC(=O)C[C@H](O)C(C)(C)C(=O)[C@H](C)[C@@H](O)[C@@H](C)CCCC(=C)C)/C(C)=C/c1csc(C)n1 [#13]
- pIC50 ([2]; Table 6, single determinations): 4.94
- pIC50 ([2]; Table 7, CEM): 4.94
- pIC50 (CCRF-CEM/VBL100; [5]): 5.25
- pIC50 (CCRF-CEM/VBL100; [6]): 5.25
- pIC50 (CCRF-CEM/VM1; [5]): 4.84

Compound: C/C(=C\c1csc(C)n1)[C@@H]1C[C@H]2O[C@H]2CCCC[C@H](O)[C@@H](C)C(=O)C(C)(C)[C@@H](O)CC(=O)O1 [#16]
- pIC50 ([2]; Table 6, single determinations): 5.13
- pIC50 ([2]; Table 7, CEM): 5.13
- pIC50 (CCRF-CEM/VBL100; [5]): 4.78
- pIC50 (CCRF-CEM/VBL100; [6]): 4.78
- pIC50 (CCRF-CEM/VM1; [5]): 6.01

Compound: C/C(=C\c1csc(C)n1)[C@@H]1C[C@@H]2O[C@]2(C)CCC[C@H](C)[C@H](O)[C@@H](C)C(=O)C(C)(C)[C@@H](O)CC(=O)O1 [#8, epothilone B]
- pIC50 ([2]; Table 5, single determinations): 9.38
- pIC50 ([2]; Table 6, single determinations, listed as 8): 9.09
- pIC50 ([2]; Table 6, single determinations, listed as EPOTHILONE B (Synthetic)): 9.26
- pIC50 ([2]; Table 7, CEM, listed as synthetic epothilone B): 9.09
- pIC50 ([2]; read-out: IC50 (mean ± of determinations, in parentheses), Table 6): 9.46
- pIC50 (CCRF-CEM/VBL100; Table 5, CCRF-CEM/VLB, single determinations, read-out: IC50): 8.77
- pIC50 (CCRF-CEM/VBL100; [7]): 8.67
- pIC50 (CCRF-CEM/VBL100; [8]): 8.54
- pIC50 (CCRF-CEM/VBL100; [9]): 8.51
- pIC50 (CCRF-CEM/VBL100; Table 7, CEM/VBL, listed as synthetic epothilone B, read-out: IC50): 8.53
- pIC50 (CCRF-CEM/VM1; [7]): 8.90
- pIC50 (CCRF-CEM/VM1; [8]): 8.36
- pIC50 (CCRF-CEM/VM1; [9]): 8.74

Compound: CC1=CCC(C(C)=Cc2csc(C)n2)OC(=O)CC(O)C(C)(C)C(=O)C(C)C(O)C(C)CCC1 (stereo not shown) [#11]
- pIC50 ([2]; Table 6, single determinations): 7.05
- pIC50 ([2]; Table 7, CEM): 7.05
- pIC50 (CCRF-CEM/VBL100; [5]): 6.58
- pIC50 (CCRF-CEM/VBL100; [6]): 6.58
- pIC50 (CCRF-CEM/VBL100; read-out: IC50): 6.58
- pIC50 (CCRF-CEM/VM1; [5]): 7.03

Compound: C/C(=C\c1csc(C)n1)C1CC2OC2CCCCC(O)C(C)C(=O)C(C)(C)C(O)CC(=O)O1 (stereo not shown) [#15, 8-Desmethylepothilone A]
- pIC50 [2]: 6.36
- Rel. Value (potency relative to Epo B) ([2]; CCRF-CEM leukemic cells): 1/1257
- pIC50 ([2]; Table 1, XTT): 6.36
- pIC50 ([2]; Table 6, single determinations): 6.36
- pIC50 ([2]; Table 7, CEM): 6.36
- times less active than corresponding epothilone A counterpart (cytotoxicity) ([2]; see Table 1): approximately 200 times
- pIC50 (CCRF-CEM/VBL100; Table 1, XTT, read-out: IC50): 5.61
- pIC50 (CCRF-CEM/VBL100; [5]): 5.61
- pIC50 (CCRF-CEM/VBL100; [6]): 5.61
- pIC50 (CCRF-CEM/VM1; Table 1, XTT, read-out: IC50): 6.12
- pIC50 (CCRF-CEM/VM1; [5]): 6.12

Reference: patent publication US6603023B2 (priority 1996, dated 2003)
